Tests used:
Format in all cases: cell-based, human
[1] = tested on: bioprinted full thickness skin tissue; assay: Histological analysis of bioprinted skin tissue after irritant treatment (H&E, CK5/IVL, CK10, collagen 3, PCNA, TUNEL); conditions: 1% TRITON X-100, 1 hour exposure
Text: (§1) Bio-ink was generated by a cellular mixture of 100% primary adult human dermal fibroblasts (HDFa) in 8% gelatin (NOVOGEL 2.0) at a concentration of 100 million cells per milliliter. The cell: gelatin ratio was altered to reduce the cellular density of the dermal sheet to better mimic dermal tissue in native skin. Three-dimensional bio-ink constructs were printed by continuous deposition using the NOVOGEN BIOPRINTER platform in a 4 mm×4 mm×0.5 mm base to create a dermal structure resembling a sheet. One tissue construct was printed per transwell in a 6-well plate. The transwell printing surface contained a polytetrafluoroethylene (PTFE) membrane coated with equimolar mixture of types I and III collagen (bovine) with pores 3 μm in size. Epidermal cell paste containing a mixture of 100% primary neonatal human epidermal keratinocytes (HEKn) was then printed on top of the dermal bio-ink. Cell paste was measured post print at 87.1% viable by trypan exclusion assay. Cell numbers in the deposited epidermal layer was estimated at 60,000 cells by cell counting on a Cell-O-Meter. Immediately following the print, constructs were placed at 4° C. for 10 minutes. Cold media was then added to the outer well of the transwell in a volume of 3 ml. The media used for subsequent growth and maintenance of the skin tissue was a 50:50 ratio of HDFa: HEKn media. The initial volume added was sufficient to submerge the structure. All subsequent media changes used warmed media (37° C.) added to the outer well of the transwell and not to the inner basket. Media was changed 48 hours later and reduced to a volume of 1.5 ml per well to bring the structure to an air-liquid interface (ALI). Media and subsequently changed 48 hours after that (day 4) at a volume of 1.5 ml. On day 5, media was changed and further reduced to 1 ml per well and subsequently changed daily. On day 10, skin tissues were subject to a skin irritation test method using 1% TRITON X-100. 1% TRITON X-100 is a known irritant and reference chemical currently used in other 3D skin models. Methods were based on OECD guidelines 439 and 431 for applying human skin models to in vitro skin irritation or corrosion, respectively. On day 10, conditioned media was saved (designated time=0) and 1 ml of fresh media was added to the outer well of the transwell. The printed skin tissue was then treated with 20 μl of PBS as a negative control or with 20 μl of 1% TRITON X-100 as a positive control and known irritant. Test substances were pipetted manually to the apical surface of the tissue. TRITON X-100 was diluted to a 1% aqueous solution in deionized water and sterile filtered through a 20 micron filter before use. Samples were incubated for 30 minutes at 37° C. followed by 30 minutes at room temperature for a total of 60 minutes. Media was saved (designated time=1 hour). Samples were then washed extensively by PBS rinsing. Transwells were then placed in a new 6-well plate with fresh media (1 ml) added to the outer well then placed back into 37° C. overnight. The media was then changed at 24 hours and at 48 hours post treatment. Total media collected included time points=−48, 0, 1, 24, and 48 hours. IL-1α production (R&D Systems) was analyzed in a colorimetric assays per manufacturer's protocol. Media was analyzed for lactate dehydrogenase as a marker for cytotoxicity. IL-1α production was assessed as a complementary endpoint to classic cytotoxicity testing to improve predictability of irritants. Keratinocytes normally produce and release inflammatory cytokine IL-1α in response to chemical or physical stress. At 48 hours post treatment (day 12), tissues were either lysed for RNA extraction and subsequent qPCR analysis, or tested for viability by alamar blue assay then rinsed in PBS and fixed with 2% PFA for histological analysis. Alamar blue (Life Technologies) was added per manufacturer's instructions to media and incubated with tissue constructs (1 ml) at 37° C. for 3 hours. […]

[2] = tested on: bioprinted full thickness skin tissue; assay: Viability of bioprinted skin tissue by alamar blue assay, skin irritation test
Text: as §1, with “One tissue construct was printed per transwell in a 6-well plate.” left out, “Test substances were pipetted manually to the apical surface of the tissue. TRITON X-100 was diluted to a 1% aqueous solution in deionized water and sterile filtered through a 20 micron filter before use. Samples were incubated for 30 minutes at 37° C. followed by 30 minutes at room temperature for a total of 60 minutes. Media was saved (designated time=1 hour). Samples were then washed extensively by PBS rinsing. Transwells were then placed in a new 6-well plate with fresh media (1 ml) added to the outer well then placed back into 37° C. overnight. The media was then changed at 24 hours and at 48 hours post treatment. Total media collected included time points=−48, 0, 1, 24, and 48 hours.” left out, “[…] Viability was measured as fluorescence” for “Keratinocytes normally produce and release inflammatory cytokine IL-1α”, “the media by conversion of resazurin” for “response”, “resorufin.” for “chemical or physical stress. At 48 hours post treatment (day 12), tissues were either lysed for RNA extraction and subsequent qPCR analysis, or tested for viability by alamar blue assay then rinsed in PBS and fixed with 2% PFA for histological analysis. Alamar blue (Life Technologies) was added per manufacturer's instructions to media and incubated with tissue constructs (1 ml) at 37° C. for 3 hours.”

[3] = tested on: bioprinted full thickness skin tissue; assay: Gene expression (qPCR) analysis of bioprinted skin tissue after irritant treatment; conditions: 1% TRITON X-100, 1 hour exposure
Text: as §1, with “Test substances were pipetted manually to the apical surface of the tissue. TRITON X-100 was diluted to a 1% aqueous solution in deionized water and sterile filtered through a 20 micron filter before use. Samples were incubated for 30 minutes at 37° C. followed by 30 minutes at room temperature for a total of 60 minutes. Media was saved (designated time=1 hour). Samples were then washed extensively by PBS rinsing. Transwells were then placed in a new 6-well plate with fresh media (1 ml) added to the outer well then placed back into 37° C. overnight. The media was then changed at 24 hours and at 48 hours post treatment. Total media collected included time points=−48, 0, 1, 24, and 48 hours.” left out, “irritants.” for “irritants. Keratinocytes normally produce and release inflammatory cytokine IL-1α in response to chemical or physical stress. At 48 hours post treatment (day 12), tissues were either lysed for RNA extraction and subsequent qPCR analysis, or tested for viability by alamar blue assay then rinsed in PBS and fixed with 2% PFA for histological analysis. Alamar blue (Life Technologies) was added per manufacturer's instructions to media and incubated with tissue constructs (1 ml) at 37° C. for 3 hours.”

[4] = 48 hours post treatment (day 12)

TRITON X-100
H&E histology [1, 4]: separation of the epidermal and dermal layers
macroscopic appearance of treated tissues [1, 4]: appeared similar to PBS control tissues macroscopically
proliferation by PCNA staining ([1]; dermal fibroblasts and basal layer, day 12): reduction in proliferation
apoptosis by TUNEL staining ([1]; dermal layer, day 12): increase in apoptosis
reduction in viability as compared to the PBS control (alamar blue) ([2]; 1% TRITON X-100, 1 hour exposure, 48 hours post treatment): 80%
viability compared to the PBS control (alamar blue assay) ([2]; 15 minute exposure, 5% SDS or 1% TRITON X-100, 24 well plate format, 42 hours post treatment): 68.75%
CK1 and CK10 gene expression ([3]; 48 hours post exposure): reduced
collagen production of types 1, 3, and 4 collagen (gene expression) ([3]; 48 hours post exposure): reduced
expression of both epidermal and dermal markers ([3]; 48 hours post exposure): dramatically reduces
IL1α gene expression increase in comparison to the PBS control ([3]; 48 hours post treatment): about 3 fold
